Data on seven molecules can be found in US5919635A (ZymoGenetics, Inc., priority 1995, dated 1999).

In assay [1] the test system is isolated human islets. Kind of assay: Insulin secretory function of isolated human pancreatic islets after perfusion. Format: cell-based. As to the method: Islet cells were isolated from human pancreata obtained from organ transplant donors for whom a matched recipient was not available. After in situ perfusion with cold UW solution (Du Pont, Boston, Mass.), each pancreas was carefully excised, the pancreatic duct cannulated, and 4 mg/ml collagenase solution (Type V, Sigma, St. Louis, Mo.) infused at a constant rate, first at 4° C. and then 39° C. The gland was teased apart, and liberated fragments were washed by centrifugation, triturated through needles of decreasing caliber, and purified by discontinuous Ficoll density centrifugation (Warnock, Diabetes 35(Suppl. 1):136-139, 1989). Material harvested from the upper interfaces was pooled and counted after a determination of islet purity by dithiazone staining. Islets used in library construction were greater than 65% pure, while islets used in Northern blots were greater than 40% pure. The average islet diameter was 175 μm.

For assay [2], the system named is CRE-luciferase (KZ6) in BHK570 cells. Kind of assay: Luciferase assay response to forskolin of KZ6-transfected BHK570 clone BHK/KZ6-19-46. Format: cell-based. As to the method:
Plasmid KZ6 was transfected into BHK570 cells (deposited with the American Type Culture Collection under Accession No. 10314) using the calcium phosphate precipitation method essentially as described by Graham and Van der Eb (Virology 52:456, 1973, which is incorporated by reference herein in its entirety). The transfected cells were grown in growth medium (Dulbecco's modified Eagle's medium (DMEM) containing 10% fetal calf serum, 1× PSN antibiotic mix (GIBCO-BRL), and 2.0 mM L-glutamine). After a few days in non-selective growth medium, the growth medium was replaced with G418 selection medium (growth medium containing 500 μg/ml of G418). The cells were then allowed to grow to confluency after which they are trypsinized and plated at limiting dilution into the wells of 96-well plates. The cells were grown for one to two weeks in G418 selection media. Clones from wells containing single colonies were assayed for the ability to respond to forskolin in the luciferase assay described below. Forskolin elevates the cellular cAMP level and thus the associated cAMP-dependent biological response pathways in a receptor-independent manner.
(§1) Following induction, the medium was removed, and the wells were washed once with 200 μl/well PBS. […] The fold induction of luciferase for each agonist was calculated as follows: [formula]

In assay [3] the target is T1, rat glucagon receptor (Rattus norvegicus, UniProt P30082).
T1 construct: pLJ4 contained an approximately 2 kb insert encoding a 485 amino acid protein; expressed in transfected cells; host or cells: BHK/KZ6-19-46 (BHK570 with CRE-luciferase plasmid KZ6), clone KZ6/rGR-DHFR-2
T1 sequence (P30082 27-485): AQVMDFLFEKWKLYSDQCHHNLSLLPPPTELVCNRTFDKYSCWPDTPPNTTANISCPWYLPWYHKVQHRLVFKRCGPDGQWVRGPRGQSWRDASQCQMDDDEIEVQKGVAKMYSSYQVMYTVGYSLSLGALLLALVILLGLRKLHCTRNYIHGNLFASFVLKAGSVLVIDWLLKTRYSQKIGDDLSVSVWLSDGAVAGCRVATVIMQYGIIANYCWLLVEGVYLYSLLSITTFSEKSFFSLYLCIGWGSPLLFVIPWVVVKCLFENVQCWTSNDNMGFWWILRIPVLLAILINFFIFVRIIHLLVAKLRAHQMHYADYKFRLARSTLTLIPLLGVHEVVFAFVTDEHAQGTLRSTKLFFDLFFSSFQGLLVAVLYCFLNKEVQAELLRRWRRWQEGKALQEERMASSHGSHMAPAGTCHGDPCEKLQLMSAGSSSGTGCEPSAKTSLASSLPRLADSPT
Kind of assay: CRE-luciferase induction in pLJ4 transfectant clone KZ6/rGR-DHFR-2. Format: cell-based. The following applies: listed 200 nM GLP, 20 nM VIP, 100 nM CT, 4 hours at 37° C. The procedure: D. Luciferase and Adenylate Cyclase Activity Assays on Whole Cells
BHK/KZ6-19-46 cells were co-transfected with pLJ4 and pLJ1 or with pZCEP and pLJ1 (pZCEP transfectants were used as negative controls) as described above using calcium phosphate-mediated transfection. Transfectants were selected in 250 nM methotrexate as described previously.
Transfectants were assayed in triplicate for the induction of the CRE-luciferase response by selected agonists. Six random pLJ4 transfectants were assayed, and random pZCEP transfectants were assayed (negative controls). Microtiter assay plates were set up such that each well contained 2×10^4 cells in 100 μl of selection medium, and the cells were grown overnight. The agonists were prepared in selection medium, at the 2× final assay concentration listed:
Induction was initiated by the addition of 100 μl for each 2× solution in triplicate sample wells. Uninduced levels were determined in triplicate wells to which 100 μl of DMEM containing 10% fetal calf serum was added. The plates were incubated for four hours at 37° C., 5% CO2 to allow induction of luciferase production.
as §1

Assay [4] has as its target Rat Glucagon Receptor (pLJ4) in COS-7 cells (Rattus norvegicus, UniProt P30082). Kind of assay: cAMP accumulation (Amersham SPA kit) in COS-7 cells transfected with pLJ4. Format: cell-based. The settings on record: 100 nM to 1000 nM; pLJ4 transfectants.
In assay [5] the target is Human Glucagon Receptor (pLJ6') (Homo sapiens, UniProt P47871). Briefly: cAMP accumulation in pLJ6'-transfected cells. Format: cell-based. The procedure: The related peptides secretin, VIP, PTH, GLP and calcitonin were each added to transfectants at concentrations of 100 nM to 1000 nM and assayed for their ability to induce cAMP levels.
Chain of Human Glucagon Receptor (pLJ6') (P47871 26-477): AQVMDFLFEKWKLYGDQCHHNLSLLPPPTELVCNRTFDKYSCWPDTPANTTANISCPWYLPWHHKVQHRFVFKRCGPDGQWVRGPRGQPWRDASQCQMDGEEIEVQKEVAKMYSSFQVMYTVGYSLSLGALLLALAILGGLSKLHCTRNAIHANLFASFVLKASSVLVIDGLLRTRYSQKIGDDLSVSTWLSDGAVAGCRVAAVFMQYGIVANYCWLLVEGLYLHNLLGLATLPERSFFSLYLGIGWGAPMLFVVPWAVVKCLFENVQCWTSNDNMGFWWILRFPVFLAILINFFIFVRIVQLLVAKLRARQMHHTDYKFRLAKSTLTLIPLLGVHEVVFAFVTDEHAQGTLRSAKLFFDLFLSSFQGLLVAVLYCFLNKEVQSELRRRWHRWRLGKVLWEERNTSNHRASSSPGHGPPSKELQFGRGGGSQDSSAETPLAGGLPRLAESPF
Transfected cells were selected in the presence of G418 until single colonies were visible. Single colonies were cloned using cloning cylinders.
The PLJ6'-transfected cells were assayed for cAMP accumulation essentially as described in Example 8.C.

The target of assay [6] is T2, cloned receptor (rat glucagon receptor, pLJ4) (Rattus norvegicus, UniProt P30082).
T2 construct: pLJ4 contained an approximately 2 kb insert encoding a 485 amino acid protein; expressed in transfected cells; host or cells: BHK570
T2 sequence (P30082 27-485): as the sequence (P30082 27-485) above
Briefly: Competition binding / Scatchard analysis with ^125 I-glucagon on membranes of pLJ4 BHK transfectants. The following applies: micromolar amounts (Table 7: 1 μM glucagon and des-His^1 [Glu^9]glucagon amide). As to the method:
Membranes from the pLJ4 BHK transfectants were compared with rat liver membrane preparations for the ability to bind ^125 I-glucagon. Membranes were prepared essentially described by Rodbell et al. (J. Biol Chem. 246:1861-1871, 1971, which is incorporated by reference herein in its entirety). Two batches of liver membranes were each prepared from approximately 80 gm of liver from 12 to 16 decapitated young female rats. The livers were removed quickly and placed into an iced beaker. The livers were separated into ten-gram portions. The portions were minced with scissors, and connective tissue was removed during the mincing procedure. The portions were separately homogenized in a Dounce homogenizer. To each portion, 25 ml of Medium (Table 2) was added to the minced tissue in the homogenizer, and the tissue was homogenized in an ice bucket with eight vigorous strokes of the loose pestle. After homogenization, the homogenates were pooled into 450 ml of cold Medium (Table 2). The pooled homogenates were stirred for 3 minutes and filtered through two layers of cheesecloth followed by filtering through four layers of cheesecloth. The homogenates were then centrifuged for 30 minutes at 1500×g at 4° C. The supernatants were discarded, and the pellets were pooled into a clean Dounce homogenizer. The pellets were resuspended with three gentle strokes of the loose pestle. The resuspended pellets were decanted into a 250 ml graduate containing 62 ml of 69% Sucrose Solution (Table 2). Distilled water was added to a final volume of 110 ml, and the mixture was thoroughly mixed and kept cold. The concentration of the solution was adjusted to 44.0%+/-0.1% using 69% sucrose or water as measured by a refractometer (Bausch & Lomb, Rochester, N.Y.). […]
To each tube 100 μl of 2× binding buffer; 20 μl of ^125 I-glucagon (Amersham); 20 μl of 1 mM NaHCO3; 20 μl 10 mM HOAc, 0.5% BSA (Novo Nordisk N/A, Bagsvaerd, Denmark); and 40 μl of distilled water were added. […] The supernatants from each sample were aspirated, and the pellets were counted. […]

No end group written: not given here.

Chain of Rat Glucagon Receptor (pLJ4) in COS-7 cells (P30082 27-485): as above

As to `O=C[C@H](O)[C@@H](O)[C@H](O)[C@H](O)CO` [glucose], the “insulin secretory function (in words)” value in assay [1] was “both first and second phase insulin secretory function”. In the case of `C=C[C@@]1(C)CC(=O)[C@]2(O)[C@@]3(C)[C@@H](O)CCC(C)(C)[C@@H]3[C@H](O)[C@H](OC(C)=O)[C@@]2(C)O1` [forskolin], the “ability to respond to forskolin in the luciferase assay” value in assay [2] is reported as “capable of responding to forskolin”. Turning to `CC(C)Cn1c(=O)n(C)c(=O)c2[nH]cnc21` [isobutylmethylxanthine (IBMX), isobutylmethylxanthine], in assay [1], the “insulin secretory function (in words)” value was “both first and second phase insulin secretory function”.

For calcitonin, the “induction of luciferase (in words)” value in assay [3] is reported as “not induced”. Also, in assay [4], the “ability to induce cAMP levels” value is “none of the related peptides were capable of inducing significant increases in cAMP levels”.

With “secretin: porcine secretin (Sigma) (HSDGTFTSELSRLRDSARLQRLLQGLV; ends and bridges not checked; UniProt P63298 33-59, looked up)”, in assay [5], the “cAMP accumulation (in words)” value is “no increased cAMP accumulation”. The “ability to induce cAMP levels” value in assay [4] is listed as “none of the related peptides were capable of inducing significant increases in cAMP levels”. Regarding des-His^1 [Glu^9 ]glucagon amide, the “ability to compete for ^125 I-glucagon binding” value in assay [6] is reported as “able to compete”.

B1: PTH: bovine parathyroid hormone (PTH) (Sigma) (peptide, UniProt P01268 32-115, looked up)
Parathyroid hormone: AVSEIQFMHNLGKHLSSMERVEWLRKKLQDVHNFVALGASIAYRDGSSQRPRKKEDNVLVESHQKSLGEADKADVDVLIKAKPQ
modifications: Parathyroid hormone
Consider B1, for which, in assay [4], the “ability to induce cAMP levels” value is listed as “none of the related peptides were capable of inducing significant increases in cAMP levels”.
